Test results as given in patent publication US8999940B2 (Ipsen Pharma S.A.S., priority 2008, dated 2015).
pKi: −log10 of the molar value.

Tests used:
[1] = Rat plasma half-life assay; assay type: in vitro ADME; settings: 37° C., LC-MS, read-out: Rat Plasma T½ (converted)
[2] = molecular target: T1, human recombinant GIP receptor (Homo sapiens, UniProt P48546); experiment: In vitro hGIP receptor binding assay
T1 construct: expressed in transfected cells; host or cells: CHO-K1 clonal cells (membrane preparation)
T1 sequence (P48546 22-466): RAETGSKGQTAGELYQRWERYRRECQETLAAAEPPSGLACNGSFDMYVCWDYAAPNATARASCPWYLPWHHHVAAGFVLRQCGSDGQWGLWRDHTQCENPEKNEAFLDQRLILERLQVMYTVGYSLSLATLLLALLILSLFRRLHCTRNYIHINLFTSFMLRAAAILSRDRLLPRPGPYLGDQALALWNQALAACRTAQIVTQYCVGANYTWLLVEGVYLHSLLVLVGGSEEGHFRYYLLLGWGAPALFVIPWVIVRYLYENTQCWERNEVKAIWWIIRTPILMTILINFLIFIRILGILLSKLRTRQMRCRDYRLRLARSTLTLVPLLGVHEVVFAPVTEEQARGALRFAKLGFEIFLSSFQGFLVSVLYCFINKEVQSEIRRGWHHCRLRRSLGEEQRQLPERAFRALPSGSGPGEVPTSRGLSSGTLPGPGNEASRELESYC
Experimental: A. In Vitro hGIP Receptor Binding Assay […] The incubations were terminated by rapid filtration through GF/C filters (pre-soaked in 0.5% polyethylenimine) using a Brandel filtration manifold. Each tube and filter were then washed three times with 5-ml aliquots of ice-cold buffer.

[3] = Human plasma half-life assay; assay type: in vitro ADME; settings: 37° C., LC-MS, read-out: Human Plasma T½ (converted)

Row | SMILES | half-life at 0.1 mg/ml [1] [h] | pKi [2] | half-life at 0.1 mg/ml [3] [h]
1 | CC[C@H](C)[C@H](NC(=O)[C@H](CCCCN)NC(=O)[C@H](CC(=O)O)NC(=O)[C@H](CCSC)NC(=O)[C@H](C)NC(=O)[C@@H](NC(=O)C1(NC(=O)[C@H](Cc2ccc(O)cc2)NC(=O)[C@H](CC(=O)O)NC(=O)[C@H](CO)NC(=O)[C@@H](NC(=O)[C@H](Cc2ccccc2)NC(=O)[C@@H](NC(=O)CNC(=O)[C@H](CCC(=O)O)NC(=O)C(C)(C)NC(=O)[C@@H](N)Cc2cscn2)[C@@H](C)O)[C@@H](C)CC)CCCC1)[C@@H](C)CC)C(=O)N[C@@H](Cc1c[nH]cn1)C(=O)N[C@@H](CCC(N)=O)C(=O)N[C@@H](CCC(N)=O)C(=O)N[C@@H](CC(=O)O)C(=O)N[C@@H](Cc1ccccc1)C(=O)N[C@H](C(=O)N[C@@H](CC(N)=O)C(=O)N[C@@H](Cc1c[nH]c2ccccc12)C(=O)N[C@@H](CC(C)C)C(=O)N[C@@H](CC(C)C)C(=O)N[C@@H](C)C(=O)N[C@@H](CCC(N)=O)C(=O)N[C@@H](CCCCN)C(=O)NCC(=O)N[C@@H](CCCCN)C(=O)N[C@@H](CCCCN)C(=O)N[C@@H](CC(N)=O)C(=O)N[C@@H](CC(=O)O)C(=O)N[C@@H](Cc1c[nH]c2ccccc12)C(=O)N[C@@H](CCCCN)C(=O)N[C@@H](Cc1c[nH]cn1)C(=O)N[C@@H](CC(N)=O)C(=O)N[C@H](C(=O)NC1(C(=O)N[C@@H](CCC(N)=O)C(=O)O)CCCC1)[C@@H](C)CC)C(C)C [Example 35, (Taz^1, Aib^2, A5c^11, 41)hGIP(1-42)-OH] | 50.6 | 8.48 | 74.5
2 | CC[C@H](C)[C@H](NC(=O)[C@H](CCCCN)NC(=O)[C@H](CC(=O)O)NC(=O)[C@H](CCSC)NC(=O)[C@H](C)NC(=O)[C@@H](NC(=O)C1(NC(=O)[C@H](Cc2ccc(O)cc2)NC(=O)[C@H](CC(=O)O)NC(=O)[C@H](CO)NC(=O)[C@@H](NC(=O)[C@H](Cc2ccccc2)NC(=O)[C@@H](NC(=O)CNC(=O)[C@H](CCC(=O)O)NC(=O)C(C)(C)NC(=O)[C@@H](N)Cc2ccc(O)c([N+](=O)[O-])c2)[C@@H](C)O)[C@@H](C)CC)CCCC1)[C@@H](C)CC)C(=O)N[C@@H](Cc1c[nH]cn1)C(=O)N[C@@H](CCC(N)=O)C(=O)N[C@@H](CCC(N)=O)C(=O)N[C@@H](CC(=O)O)C(=O)N[C@@H](Cc1ccccc1)C(=O)N[C@H](C(=O)N[C@@H](CC(N)=O)C(=O)N[C@@H](Cc1c[nH]c2ccccc12)C(=O)N[C@@H](CC(C)C)C(=O)N[C@@H](CC(C)C)C(=O)N[C@@H](C)C(=O)N[C@@H](CCC(N)=O)C(=O)N[C@@H](CCCCN)C(=O)NCC(=O)N[C@@H](CCCCN)C(=O)N[C@@H](CCCCN)C(=O)N[C@@H](CC(N)=O)C(=O)N[C@@H](CC(=O)O)C(=O)N[C@@H](Cc1c[nH]c2ccccc12)C(=O)N[C@@H](CCCCN)C(=O)N[C@@H](Cc1c[nH]cn1)C(=O)N[C@@H](CC(N)=O)C(=O)N[C@H](C(=O)NC1(C(=O)N[C@@H](CCC(N)=O)C(=O)O)CCCC1)[C@@H](C)CC)C(C)C [Example 36, (3NO2-Tyr^1, Aib^2, A5c^11, 41)hGIP(1-42)-OH] | 11.7 | 7.95 | > 72
3 | CC[C@H](C)[C@H](NC(=O)[C@H](CCCCN)NC(=O)[C@H](CC(=O)O)NC(=O)[C@H](CCSC)NC(=O)[C@H](C)NC(=O)[C@@H](NC(=O)C1(NC(=O)[C@H](Cc2ccc(O)cc2)NC(=O)[C@H](CC(=O)O)NC(=O)[C@H](CO)NC(=O)[C@@H](NC(=O)[C@H](Cc2ccccc2)NC(=O)[C@@H](NC(=O)CNC(=O)[C@H](CCC(=O)O)NC(=O)C(C)(C)NC(=O)[C@@H](N)Cc2ccsc2)[C@@H](C)O)[C@@H](C)CC)CCCC1)[C@@H](C)CC)C(=O)N[C@@H](Cc1c[nH]cn1)C(=O)N[C@@H](CCC(N)=O)C(=O)N[C@@H](CCC(N)=O)C(=O)N[C@@H](CC(=O)O)C(=O)N[C@@H](Cc1ccccc1)C(=O)N[C@H](C(=O)N[C@@H](CC(N)=O)C(=O)N[C@@H](Cc1c[nH]c2ccccc12)C(=O)N[C@@H](CC(C)C)C(=O)N[C@@H](CC(C)C)C(=O)N[C@@H](C)C(=O)N[C@@H](CCC(N)=O)C(=O)N[C@@H](CCCCN)C(=O)NCC(=O)N[C@@H](CCCCN)C(=O)N[C@@H](CCCCN)C(=O)N[C@@H](CC(N)=O)C(=O)N[C@@H](CC(=O)O)C(=O)N[C@@H](Cc1c[nH]c2ccccc12)C(=O)N[C@@H](CCCCN)C(=O)N[C@@H](Cc1c[nH]cn1)C(=O)N[C@@H](CC(N)=O)C(=O)N[C@H](C(=O)NC1(C(=O)N[C@@H](CCC(N)=O)C(=O)O)CCCC1)[C@@H](C)CC)C(C)C [Example 37, (3Thi^1, Aib^2, A5c^11, 41)hGIP(1-42)-OH] | > 72 | 8.15 | 29.3
4 | CC[C@H](C)[C@H](NC(=O)[C@H](CCCCN)NC(=O)[C@H](CC(=O)O)NC(=O)[C@H](CCSC)NC(=O)[C@H](C)NC(=O)[C@@H](NC(=O)C1(NC(=O)[C@H](Cc2ccc(O)cc2)NC(=O)[C@H](CC(=O)O)NC(=O)[C@H](CO)NC(=O)[C@@H](NC(=O)[C@H](Cc2ccccc2)NC(=O)[C@@H](NC(=O)CNC(=O)[C@H](CCC(=O)O)NC(=O)C(C)(C)NC(=O)[C@@H](N)Cc2ccc(C#N)cc2)[C@@H](C)O)[C@@H](C)CC)CCCC1)[C@@H](C)CC)C(=O)N[C@@H](Cc1c[nH]cn1)C(=O)N[C@@H](CCC(N)=O)C(=O)N[C@@H](CCC(N)=O)C(=O)N[C@@H](CC(=O)O)C(=O)N[C@@H](Cc1ccccc1)C(=O)N[C@H](C(=O)N[C@@H](CC(N)=O)C(=O)N[C@@H](Cc1c[nH]c2ccccc12)C(=O)N[C@@H](CC(C)C)C(=O)N[C@@H](CC(C)C)C(=O)N[C@@H](C)C(=O)N[C@@H](CCC(N)=O)C(=O)N[C@@H](CCCCN)C(=O)NCC(=O)N[C@@H](CCCCN)C(=O)N[C@@H](CCCCN)C(=O)N[C@@H](CC(N)=O)C(=O)N[C@@H](CC(=O)O)C(=O)N[C@@H](Cc1c[nH]c2ccccc12)C(=O)N[C@@H](CCCCN)C(=O)N[C@@H](Cc1c[nH]cn1)C(=O)N[C@@H](CC(N)=O)C(=O)N[C@H](C(=O)NC1(C(=O)N[C@@H](CCC(N)=O)C(=O)O)CCCC1)[C@@H](C)CC)C(C)C [Example 38, (4CN-Phe^1, Aib^2, A5c^11, 41)hGIP(1-42)-OH] | > 72 | 7.84 | 16.4
5 | CC[C@H](C)[C@H](NC(=O)[C@H](CCCCN)NC(=O)[C@H](CC(=O)O)NC(=O)[C@H](CCSC)NC(=O)[C@H](C)NC(=O)[C@@H](NC(=O)C1(NC(=O)[C@H](Cc2ccc(O)cc2)NC(=O)[C@H](CC(=O)O)NC(=O)[C@H](CO)NC(=O)[C@@H](NC(=O)[C@H](Cc2ccccc2)NC(=O)[C@@H](NC(=O)CNC(=O)[C@H](CCC(=O)O)NC(=O)C(C)(C)NC(=O)[C@@H](N)Cc2cccc(F)c2)[C@@H](C)O)[C@@H](C)CC)CCCC1)[C@@H](C)CC)C(=O)N[C@@H](Cc1c[nH]cn1)C(=O)N[C@@H](CCC(N)=O)C(=O)N[C@@H](CCC(N)=O)C(=O)N[C@@H](CC(=O)O)C(=O)N[C@@H](Cc1ccccc1)C(=O)N[C@H](C(=O)N[C@@H](CC(N)=O)C(=O)N[C@@H](Cc1c[nH]c2ccccc12)C(=O)N[C@@H](CC(C)C)C(=O)N[C@@H](CC(C)C)C(=O)N[C@@H](C)C(=O)N[C@@H](CCC(N)=O)C(=O)N[C@@H](CCCCN)C(=O)NCC(=O)N[C@@H](CCCCN)C(=O)N[C@@H](CCCCN)C(=O)N[C@@H](CC(N)=O)C(=O)N[C@@H](CC(=O)O)C(=O)N[C@@H](Cc1c[nH]c2ccccc12)C(=O)N[C@@H](CCCCN)C(=O)N[C@@H](Cc1c[nH]cn1)C(=O)N[C@@H](CC(N)=O)C(=O)N[C@H](C(=O)NC1(C(=O)N[C@@H](CCC(N)=O)C(=O)O)CCCC1)[C@@H](C)CC)C(C)C [Example 41, (3F-Phe^1, Aib^2, A5c^11, 41)hGIP(1-42)-OH] | > 66 | 8.27 | 63.6
6 | CC[C@H](C)[C@H](NC(=O)[C@H](CCCCN)NC(=O)[C@H](CC(=O)O)NC(=O)[C@H](CCSC)NC(=O)[C@H](C)NC(=O)[C@@H](NC(=O)C1(NC(=O)[C@H](Cc2ccc(O)cc2)NC(=O)[C@H](CC(=O)O)NC(=O)[C@H](CO)NC(=O)[C@@H](NC(=O)[C@H](Cc2ccccc2)NC(=O)[C@@H](NC(=O)CNC(=O)[C@H](CCC(=O)O)NC(=O)C(C)(C)NC(=O)[C@@H](N)Cc2c(C)cc(O)cc2C)[C@@H](C)O)[C@@H](C)CC)CCCC1)[C@@H](C)CC)C(=O)N[C@@H](Cc1c[nH]cn1)C(=O)N[C@@H](CCC(N)=O)C(=O)N[C@@H](CCC(N)=O)C(=O)N[C@@H](CC(=O)O)C(=O)N[C@@H](Cc1ccccc1)C(=O)N[C@H](C(=O)N[C@@H](CC(N)=O)C(=O)N[C@@H](Cc1c[nH]c2ccccc12)C(=O)N[C@@H](CC(C)C)C(=O)N[C@@H](CC(C)C)C(=O)N[C@@H](C)C(=O)N[C@@H](CCC(N)=O)C(=O)N[C@@H](CCCCN)C(=O)NCC(=O)N[C@@H](CCCCN)C(=O)N[C@@H](CCCCN)C(=O)N[C@@H](CC(N)=O)C(=O)N[C@@H](CC(=O)O)C(=O)N[C@@H](Cc1c[nH]c2ccccc12)C(=O)N[C@@H](CCCCN)C(=O)N[C@@H](Cc1c[nH]cn1)C(=O)N[C@@H](CC(N)=O)C(=O)N[C@H](C(=O)N[C@H](C(=O)N[C@@H](CCC(N)=O)C(=O)N[C@@H](Cc1c[nH]cn1)C(=O)O)[C@@H](C)O)[C@@H](C)CC)C(C)C [Example 53, (2,6Me-Tyr^1, Aib^2, A5c^11, His^43)hGIP(1-43)-OH] | 23.2 | 7.46 | 20
